Source: patent publication US20260207459A1, “SUGARCANE DERIVED SEMI-SYNTHETIC COSMETIC INGREDIENTS, METHODS OF PRODUCTION THEREOF, AND PERSONAL CARE PRODUCTS DERIVED THEREFROM” (AMYRIS, INC., priority 2023, published 2026)

Experiments:
[1] = Surface tension by pendant drop; format: physicochemical; conditions: for Surface tension: Kruss DSA 100, pendant drop; for surface tension (comparison in words): pendant drop shape analysis, FIG. 4
Description: The surface tension of a material in beauty and personal care (B&PC) ingredients accounts for many of the sensory attributes. The lower the surface tension of a material the better is the material's spreadability, slip, glide, and lubricity.
(§1) Example 9: Wetting on Hydrophobic-PTFE and Hydrophilic-Glass Slide Substrates by Static Contact Angle and Surface Tension by Pendant Drop Shape Analysis
(§2) The wetting values (on hydrophobic-PTFE and on hydrophilic-glass slides) were measured and compared for amodimethicone, LEX FEEL (diheptyl succinate), non-redistilled HDD, distilled HDD, PROTOL (mineral oil), RUDOL (mineral oil), ERVOL (mineral oil), and squalane. […] The lower surface tension of HDD can be translated to better spreading and glide in formulations and position it comparably with mineral oils with similar viscosities and LEX FEEL 350.
(§3) Measurement of surface tension of liquids: A Kruss DSA 100 was employed using the pendant drop method. Prior to the measurement, surface tension of the water was tested as a standard with an expected surface tension of 72 mN/m at 25° C. Then, a drop of the tested liquid was pushed through a 0.514 mm needle of a micro syringe and the surface tension was calculated using inbuilt software. The result of the measurement is an average of at least 3 measurements. Static contact angle measurement (wetting): To measure the contact angle, a Kriss DSA 100 and the sessile drop method were used. A glass substrate was used for the measurements. To measure the contact angle on the substrate, a single drop was deposited onto the substrate from a 0.514 mm needle of a micro syringe. Then, drop shape and contact angle were analyzed using inbuilt software. The result of the measurement was the average of at least 3 measurements. To ensure that the substrate is prepared well, it was cleaned with non-polar hexane, THF, and polar acetone. To ensure that the glass substrate was clean, a drop of water was deposited on its surface. Gloss measurement: To measure the gloss, 2 mL of material was drawn downed on a glass substrate. Then glass was placed over a black matte surface and gloss was measured with a BYK micro-TRI-gloss glossmeter.

[2] = Static contact angle (wetting) on glass / PTFE; format: physicochemical; conditions: for Water contact angle: static contact angle on glass
Description: Static water contact angle is another indication of material spreading and wetting.
as §1, §2, §3

[3] = Gloss measurement (glossmeter); format: physicochemical
Description: Gloss is a very desirable property in B&PC products. Gloss was measured at 20 deg.
Tested dimethicones have the lowest gloss.
as §3

[4] = Viscosity (capillary viscometer / rheometer); format: physicochemical; conditions: for Viscosity: at 25° C., ARES G2 rheometer
Description: The viscosity, gloss, surface tension, and wetting were also calculated for farnesyl HH-farnesoate (Compound (I-C)) and the results are shown in Table 4. The properties of Table 4 were determined as follows: Measurement of dynamic viscosity using rheometer: Using a ARES G2 rheometer, the viscosity of the samples were measured using 25 mm plate clamps with a gap size about 0.5 mm, strain 1%, frequency range 1-500 rad/s, and a temperature of about 25° C.

[5] = In vitro skin permeation, Franz diffusion cell system; format: in vitro ADME, human; conditions: for Total accumulated dose passed through the skin into the reservoir / Total accumulated dose in Dermis / Total accumulated dose in Epidermis: 1.0 wt % in squalane, 5 μl, nominal 90.91 μg/cm^2; for penetration to the dermis compared with THDA: 24 hour time point, cadaver skin; for Total accumulated dose in Dermis / Total accumulated dose in Epidermis: measured at 24 hours
Description: The rate and extent of in vitro skin permeation of compounds tetrahexydecyl ascorbate (THDA, shown below), di(hexahydrofarnesyl) ascorbate (Compound (II-A)), tri(hexahydrofarnesyl) ascorbate (Compound (II-B)), and tetra(hexahydrofamesyl) ascorbate (Compound (II-C)) was measured into and through cadaver skin using a Franz diffusion cell system. THDA is a Vitamin C ester commonly used in cosmetic formulations.
Flux was measured over a period of 24 hours after application of the formulations. At the end of the 24 hour study, the skin was washed, tapestripped and split into epidermal and dermal compartments. The compounds were then extracted from the skin compartments and the compound concentration was measured in these compartments along with the receptor fluid aliquots. The formulations were chosen to determine the effect of the formulation composition and compound concentration on the rate of delivery of the compounds into and through the skin. In vitro skin permeation measurements with Franz-type diffusion cells provide data that is informative relative to in vivo performance.
To prepare the formulations, the compounds were weighed in a glass vial into which the squalane was added. The ending solution was then vortexed for 1 minute, followed by sonication for 30 minutes.
Intact human cadaver skin was purchased from Science Care. The skin tissue was dermatomed by the tissue bank to a thickness of some 250-500 μm and shipped frozen on dry ice. Upon receipt of the donor skin, the skin pieces were stored at −20° C. until used. Prior to use, the skin pieces were removed from the freezer and allowed to thaw fully at ambient temperature.
The following equipment was used during the course of the study: • 1.) Diffusion cells. 24 diffusion cells with 3.3 ml receptor volume and a […] receptor fluid exposure surface area. • 2.) Stirring Dry Block Heaters. Reacti-Therm #18823 stirring dry block heaters were used to maintain the receptor fluid at 32±0.5° C. with constant stirring throughout the study. • 3.) The analysis was carried out with an Agilent 1260 HPLC with a G6120 MS detector and a G4212B diode array detector.
After the analytical testing was complete, the samples were analyzed using Chemstation software. The areas under the curve (“AUCs”) of the compound peaks were recorded and converted to jig/ml values using a calibration curve developed from the calibration standards' AUC values and known concentration values. The concentrations were then multiplied by the receptor volume (3.3 mL) and divided by the surface area of the skin exposed to the receptor fluid (0.55 cm^2) for an end cumulative amount in μg/cm^2.
For receptor fluid time points greater than 4 hrs, this μg/cm^2 value was corrected for the sample aliquot volumes which were removed to compensate for the dilution caused by replacing the sample volume with fresh buffer solution. As an example, for the second time point at 8 hrs, the dilution factor (300 μl aliquot/3.3 ml receptor volume or 1/11) is multiplied by the g/cm^2 value calculated for the 4 hr time point, the result of which is then added to the μg/cm^2 concentration which is calculated using the 8 hr AUC value.
The receptor fluid consisted of phosphate buffered saline at pH 7.4, sourced from Quality Biologicals, with 0.01 wt % NaN3 (added as a preservative), and lwt % Brij 020 (added as a solubilizing agent). The solubility of the compounds in the receptor fluid was determined to be sufficient to maintain sink conditions throughout the study. After mixing the receptor fluid, the receptor fluid was degassed, filtered through a ZapCap CR 0.2 μm membrane under vacuum, and stirred for an additional 20 minutes under vacuum.
Glass FDCs with a 3.3 ml receiver volume and 0.55 cm^2 diffusional area were used. Once the skin was defrosted and washed as described above the FDCs were prepared as follows: • 1. The receptor wells were filled with degassed receptor fluid using a pipette. • 2. […]

CC(C)CCCC(C)CCCC(C)CCOC(=O)CC(C)CCCC(C)CCCC(C)C (centres unmarked) [Compound (I-C), 3,7,11-trimethyldodecyl 3,7,11-trimethyldodecanoate]
Surface tension [1]: 27.6 ± 0.2 mN/m | Surface tension ([1]; listed as Compound I-C): 27.6±0.2 mN/m | Wetting (static contact angle) ([2]; sessile drop on glass substrate): 18.5° | Gloss ([3]; BYK micro-TRI-gloss glossmeter, drawn down on glass): 69.4 ± 2.7 | Viscosity [4]: 30 ± 10 cP at 25 °C | Viscosity ([4]; listed as Compound I-C): 30±10 cP

CC(C)CCCC(C)CCCC(C)CC(=O)OC[C@H](OC(=O)CC(C)CCCC(C)CCCC(C)C)C1OC(=O)C(O)=C1O (stereo partly drawn) [Compound (II-A), (1S)-1-(3,4-dihydroxy-5-oxo-2,5-dihydrofuran-2-yl)ethane-1,2-diyl bis(3,7,11-trimethyldodecanoate)]
Total accumulated dose passed through the skin into the reservoir ([5]; 4 hrs): 0.17 μg/cm^2 | Total accumulated dose passed through the skin into the reservoir ([5]; 8 hrs): 0.18 μg/cm^2 | penetration to the dermis compared with THDA [5]: better penetration to the dermis | Total accumulated dose passed through the skin into the reservoir ([5]; 24 hrs): 0.20 μg/cm^2 | Total accumulated dose in Dermis [5]: 0.85 μg/cm^2 | Total accumulated dose in Epidermis [5]: 9.28 μg/cm^2

CC(C)CCCC(C)CCCC(C)CC(=O)OC[C@H](OC(=O)CC(C)CCCC(C)CCCC(C)C)C1OC(=O)C(O)=C1OC(=O)CC(C)CCCC(C)CCCC(C)C (stereo partly drawn) [Compound (II-B), (1S)-1-(4-hydroxy-5-oxo-3-((3,7,11-trimethyldodecanoyl)oxy)-2,5-dihydrofuran-2-yl)ethane-1,2-diyl bis(3,7,11-trimethyldodecanoate)]
Total accumulated dose passed through the skin into the reservoir ([5]; 4 hrs): 0.00 μg/cm^2 | Total accumulated dose passed through the skin into the reservoir ([5]; 8 hrs): 0.00 μg/cm^2 | penetration to the dermis compared with THDA [5]: better penetration to the dermis | Total accumulated dose passed through the skin into the reservoir ([5]; 24 hrs): 0.00 μg/cm^2 | Total accumulated dose in Dermis [5]: 1.37 μg/cm^2 | Total accumulated dose in Epidermis [5]: 4.41 μg/cm^2

CC(C)CCCC(C)CCCC(C)CC(=O)OC[C@H](OC(=O)CC(C)CCCC(C)CCCC(C)C)C1OC(=O)C(OC(=O)CC(C)CCCC(C)CCCC(C)C)=C1OC(=O)CC(C)CCCC(C)CCCC(C)C (stereo partly drawn) [Compound (II-C), 2-((1S)-1,2-bis((3,7,11-trimethyldodecanoyl)oxy)ethyl)-5-oxo-2,5-dihydrofuran-3,4-diyl bis(3,7,11-trimethyldodecanoate)]
Total accumulated dose passed through the skin into the reservoir ([5]; 4 hrs): 0.05 μg/cm^2 | Total accumulated dose passed through the skin into the reservoir ([5]; 8 hrs): 0.03 μg/cm^2 | Total accumulated dose passed through the skin into the reservoir ([5]; 24 hrs): 0.04 μg/cm^2 | Total accumulated dose in Dermis [5]: 0.01 μg/cm^2 | Total accumulated dose in Epidermis [5]: 1.02 μg/cm^2

CC(C)CCCC(C)CCCC(C)CCCCC(C)CCCC(C)CCCC(C)C (centres unmarked) [Squalane, squalane, reference compound]
Surface tension, mN/m [1]: 26.1 mN/m | Water contact angle [2]: 30.9 ° | gloss value (comparison in words) [3]: somewhat lower gloss value | Gloss ([3]; measured at 20 deg): 65.7 | Viscosity @20 C., cP [4]: 23.3 cP

CCCCCCCCC(CCCCCC)C(=O)OCC(OC(=O)C(CCCCCC)CCCCCCCC)C1OC(=O)C(OC(=O)C(CCCCCC)CCCCCCCC)=C1OC(=O)C(CCCCCC)CCCCCCCC (centres unmarked) [Tetrahexydecyl ascorbate, tetrahexydecyl ascorbate, reference compound]
Total accumulated dose passed through the skin into the reservoir ([5]; 4 hrs): 0.00 μg/cm^2 | Total accumulated dose passed through the skin into the reservoir ([5]; 8 hrs): 0.00 μg/cm^2 | Total accumulated dose passed through the skin into the reservoir ([5]; 24 hrs): 0.00 μg/cm^2 | Total accumulated dose in Dermis [5]: 0.18 μg/cm^2 | Total accumulated dose in Epidermis [5]: 25.78 μg/cm^2

hexahydrofarnesene dimer [HDD Glycotech]
surface tension (comparison in words) ([1]; listed as Non-redistilled HDD): highest values of surface tension | viscosity by rheology [4]: 68.2

hexahydrofarnesene dimer [HDD]
Surface tension, mN/m [1]: 24.5 mN/m | surface tension (comparison in words) ([1]; listed as Distilled HDD): lower surface tension value | Water contact angle [2]: 19.8 ° | Gloss ([3]; measured at 20 deg): 70.6 | Viscosity @20 C., cP [4]: 61.5 cP | viscosity by rheology [4]: 61.5
